Results on three compounds are retold here after ChEMBL document CHEMBL5724914, “Linking interpersonal differences in gut microbiota composition and drug biotransformation activity” (2024).

The conditions of series [1]: human gut metagenome, 24 h, 2 µM.
For series [2] the following is noted: human gut metagenome, 24 h, 2 µM. This is another data set of the same source.
The conditions of series [3]: human gut metagenome, 24 h, 2 µM. The source holds these as a separate data set.
Series [4] can be described thus: The drug is tested on Z-013 corresponding to rabbit gut metagenome with ENA study accession number: PRJEB37062 and ENA sample accession number: ERS12561813 for biotransformation under anaerobic condition. The drug concentrations were measured over 9 timepoints collected between 0 and 24 hours of incubation by liquid-chromatography-coupled mass spectrometry (LC–MS). The settings on record: 2 µM.

The nature of series [5]: The drug is tested on Z-021 corresponding to metagenome with ENA study accession number: PRJEB37062 and ENA sample accession number: ERS12561820 for biotransformation under anaerobic condition. The drug concentrations were measured over 9 timepoints collected between 0 and 24 hours of incubation by liquid-chromatography-coupled mass spectrometry (LC–MS). The settings on record: 2 µM.

Series [6] can be described thus: The drug is tested on Z-020 corresponding to rabbit gut metagenome with ENA study accession number: PRJEB37062 and ENA sample accession number: ERS12561819 for biotransformation under anaerobic condition. The drug concentrations were measured over 9 timepoints collected between 0 and 24 hours of incubation by liquid-chromatography-coupled mass spectrometry (LC–MS). As to conditions: 2 µM.

A short description of series [7]: The drug is tested on Z-026 corresponding to metagenome with ENA study accession number: PRJEB37062 and ENA sample accession number: ERS12561825 for biotransformation under anaerobic condition. The drug concentrations were measured over 9 timepoints collected between 0 and 24 hours of incubation by liquid-chromatography-coupled mass spectrometry (LC–MS). The settings on record: 2 µM.

For series [8] the following is noted: human gut metagenome, 24 h, 2 µM. The source holds these as a separate data set.
The conditions of series [9]: human gut metagenome, 24 h, 2 µM. The source holds these as a separate data set.
The nature of series [10]: The drug is tested on Z-002 corresponding to rabbit gut metagenome with ENA study accession number: PRJEB37062 and ENA sample accession number: ERS12561802 for biotransformation under anaerobic condition. The drug concentrations were measured over 9 timepoints collected between 0 and 24 hours of incubation by liquid-chromatography-coupled mass spectrometry (LC–MS). The settings on record: 2 µM.

Series [11] is described as follows: The drug is tested on Z-029 corresponding to rat gut metagenome with ENA study accession number: PRJEB37062 and ENA sample accession number: ERS12561828 for biotransformation under anaerobic condition. The drug concentrations were measured over 9 timepoints collected between 0 and 24 hours of incubation by liquid-chromatography-coupled mass spectrometry (LC–MS). The settings on record: 2 µM.

For series [12] the following is noted: human gut metagenome, 24 h, 2 µM. The source holds these as a separate data set.
Series [13] is described as follows: The drug is tested on Z-028 corresponding to mouse gut metagenome with ENA study accession number: PRJEB37062 and ENA sample accession number: ERS12561827 for biotransformation under anaerobic condition. The drug concentrations were measured over 9 timepoints collected between 0 and 24 hours of incubation by liquid-chromatography-coupled mass spectrometry (LC–MS). The settings on record: 2 µM.

The nature of series [14]: The drug is tested on WLS-170 corresponding to human gut metagenome with ENA study accession number: PRJEB37062 and ENA sample accession number: ERS12561762 for biotransformation under anaerobic condition. The drug concentrations were measured over 9 timepoints collected between 0 and 24 hours of incubation by liquid-chromatography-coupled mass spectrometry (LC–MS). The settings on record: 2 µM.

The nature of series [15]: The drug is tested on WLS-082 corresponding to human gut metagenome with ENA study accession number: PRJEB37062 and ENA sample accession number: ERS12561751 for biotransformation under anaerobic condition. The drug concentrations were measured over 9 timepoints collected between 0 and 24 hours of incubation by liquid-chromatography-coupled mass spectrometry (LC–MS). The settings on record: 2 µM.

For series [16] the following is noted: human gut metagenome, 24 h, 2 µM. The source holds these as a separate data set.
For series [17] the following is noted: human gut metagenome, 24 h, 2 µM. The source holds these as a separate data set.
Series [18] is described as follows: The drug is tested on WLS-027 corresponding to human gut metagenome with ENA study accession number: PRJEB37062 and ENA sample accession number: ERS12561744 for biotransformation under anaerobic condition. The drug concentrations were measured over 9 timepoints collected between 0 and 24 hours of incubation by liquid-chromatography-coupled mass spectrometry (LC–MS). The settings on record: 2 µM.

Series [19] is described as follows: The drug is tested on WLS-010 corresponding to human gut metagenome with ENA study accession number: PRJEB37062 and ENA sample accession number: ERS12561743 for biotransformation under anaerobic condition. The drug concentrations were measured over 9 timepoints collected between 0 and 24 hours of incubation by liquid-chromatography-coupled mass spectrometry (LC–MS). The settings on record: 2 µM.

Series [20] in a line: The drug is tested on WLS-370 corresponding to human gut metagenome with ENA study accession number: PRJEB37062 and ENA sample accession number: ERS12561793 for biotransformation under anaerobic condition. The drug concentrations were measured over 9 timepoints collected between 0 and 24 hours of incubation by liquid-chromatography-coupled mass spectrometry (LC–MS). As to conditions: 2 µM.
Note: call rule not given here.

`CCN1CCCC1CNC(=O)c1cc(S(=O)(=O)CC)c(N)cc1OC` (stereo not given) [AMISULPRIDE]: the “Bacterial Biotransformation” value is recorded as “Compound NOT metabolized” in [1]; “Compound NOT metabolized” in series [2]; “Compound metabolized” in series [3]; “Compound NOT metabolized” in series [4]; “Compound NOT metabolized” in series [5]; “Compound NOT metabolized” in series [6]. For the same compound, the “Bacterial Biotransformation” value in series [7] was “Compound NOT metabolized”; in series [8], “Compound NOT metabolized”; in [9], “Compound NOT metabolized”; in series [10], “Compound metabolized”; in series [11], “Compound NOT metabolized”; in [12], “Compound NOT metabolized”. In addition, the “Bacterial Biotransformation” value in [13] is “Compound NOT metabolized”; in series [14] it was “Compound metabolized”; in series [15], “Compound NOT metabolized”; in [16], “Compound metabolized”; in series [17], “Compound NOT metabolized”; in series [18], “Compound NOT metabolized”. Moreover, the “Bacterial Biotransformation” value in [19] and in series [20] was “Compound NOT metabolized” in each case.
`CN1[C@@H]2CC[C@H]1C[C@@H](OC(=O)c1c[nH]c3ccccc13)C2` [TROPISETRON]: the “Bacterial Biotransformation” value in [1], in [2], in series [3], in series [4], in [5] and in [6] was “Compound NOT metabolized” in each case. In addition, the “Bacterial Biotransformation” value in series [7], in series [8], in [9], in [10], in [11] and in [12] was “Compound NOT metabolized” each time. Moreover, the “Bacterial Biotransformation” value in series [13], in series [14], in series [15], in [16], in [17] and in [18] was “Compound NOT metabolized” throughout. Besides, the “Bacterial Biotransformation” value in series [19] and in [20] was “Compound NOT metabolized” each time.
Consider `CCOC(=O)[C@H](CCc1ccccc1)N[C@@H](C)C(=O)N1Cc2ccccc2C[C@H]1C(=O)O`, for which the “Bacterial Biotransformation” value in series [1] was “Compound metabolized”; in series [2], “Compound NOT metabolized”; in series [3], “Compound metabolized”; in [4] it was “Compound NOT metabolized”; in series [5], “Compound NOT metabolized”; in [6], “Compound NOT metabolized”. Moreover, the “Bacterial Biotransformation” value in [7] is recorded as “Compound NOT metabolized”; in series [8], “Compound metabolized”; in series [9], “Compound metabolized”; in [10], “Compound metabolized”; in series [11] it was “Compound NOT metabolized”; in series [12] it was “Compound metabolized”. Also, the “Bacterial Biotransformation” value in series [13] was “Compound NOT metabolized”; in series [14], “Compound metabolized”; in series [15] it was “Compound metabolized”; in series [16], “Compound metabolized”; in series [17], “Compound metabolized”; in series [18], “Compound metabolized”. The “Bacterial Biotransformation” value in [19] and in series [20] was “Compound metabolized” each time.
